Measured values from US9248145B2, “Two alkylresorcinol synthase genes from sorghum; cloning, expression, transformation and characterization” (The United States of America, as represented by The …, priority 2010, dated 2016).

Assays:
[1] = target: T1, recombinant ARS2 (Sorghum bicolor, UniProt C5YRS1); assay: Polyketide synthase enzyme assay, 5-alkylresorcinol formation (GC-MS, m/z 268); type: biochemical; conditions: for activity as starter unit (in words): malonyl-CoA extender
Protocol: (§1) Reactions were quenched by addition of 10 μL of 20% HCl, and products were extracted by phase partitioning with 1 ml of ethyl acetate. The organic phase (upper layer) obtained by centrifugation at ˜14,000×g for 1 min was transferred to a fresh tube, dried under vacuum, and subsequently analyzed by GC-EI-MS as a trimethysilyl (TMS) derivative.
(§2) Reactions were quenched by addition of 10 μL of 20% HCl. The products were extracted as described above, and were separated by thin layer chromatography (silica gel 60 F254; chloroform:ethyl acetate=70:30; 15 min). Product detection and formation was quantified through the use of the Cyclone storage phosphor system and OptiQuant 3.0 image analysis software (PerkinElmer, Wellesley, Mass.).
(§3) Recombinant enzyme studies were next performed to examine substrate preferences for the 3 putative type III PKS enzymes maximally expressed in root hairs. […] Acyl-CoAs varying in length and degree of saturation were tested in enzymatic assays with all three recombinant enzymes, as well as the non-linear starter units benzoyl-CoA, isovaleryl-CoA, and isobutryl-CoA used by several other plant type III PKS enzymes (Austin and Noel, supra).

[2] = target: T2, recombinant ARS1 (Sorghum bicolor, UniProt C5Y4Z2); assay: Steady-state kinetics with [2-14C]-malonyl-CoA, TLC/phosphor imaging; type: biochemical; conditions: for Km: same conditions as kcat; for kcat: starter kinetics: 40 μM [2-14C]-malonyl-CoA, 1.43-10 μM starter, malonyl-CoA kinetics: 25 μM palmitoleoyl-CoA starter, pH 7.0, 30° C., 5 min
Protocol: (§4) Enzyme assays, performed in triplicate, for starter unit CoA kinetics contained 100 mM potassium phosphate buffer (pH 7.0), 40 μM [2-^14C]-malonyl-CoA (50-60 mCi/mmol, 1.85-2.22 GBq/mmol; American Radiolabeled Chemicals, Inc., St. Louis, Mo.), 1.43-10 μM starter unit (e.g., palmitoyl-CoA), and 0.75 μg protein in a 200 μL volume at 30° C. for 5 min. Enzyme assays for malonyl-CoA kinetics contained 100 mM potassium phosphate buffer (pH 7.0), 1.66-25 μM [2-^14C]-malonyl-CoA, 25 μM starter unit (palmitoleoyl-CoA), and 0.75 μg protein in a 200 μL volume at 30° C. for 5 min. Reactions were quenched by addition of 10 μL of 20% HCl. The products were extracted as described above, and were separated by thin layer chromatography (silica gel 60 F254; chloroform:ethyl acetate=70:30; 15 min). Product detection and formation was quantified through the use of the Cyclone storage phosphor system and OptiQuant 3.0 image analysis software (PerkinElmer, Wellesley, Mass.). Data were fit to the Michaelis-Menten equation using the Sigma Plot 9.01 enzyme kinetics module (Systat, Inc., San Jose, Calif.).

[3] = target: T1, recombinant ARS2; assay: as above; type: biochemical; conditions: for Km: same conditions as kcat; for kcat: starter kinetics: 40 μM [2-14C]-malonyl-CoA, 1.43-10 μM starter, malonyl-CoA kinetics: 25 μM palmitoleoyl-CoA starter, pH 7.0, 30° C., 5 min
Protocol: as §4

[4] = target: T2, recombinant ARS1; assay: Polyketide synthase enzyme assay, 5-alkylresorcinol formation (GC-MS, m/z 268); type: biochemical; conditions: for activity as starter unit (in words): malonyl-CoA extender
Protocol: as §1, §2, §3

[5] = system: recombinant Os05g12180; assay: Polyketide synthase enzyme assay, alkylresorcinol synthase activity; type: biochemical, Oryza sativa
Protocol: (§5) Polyketide synthase enzyme assays, performed in triplicate, contained 100 mM potassium phosphate buffer (pH 7.0), 40 μM malonyl-CoA, 25 μM starter unit (e.g., palmitoyl-CoA), and 2 μg protein in a 200 μL volume at 30° C. for 15 min. […] Reactions were quenched by addition of 10 μL of 20% HCl, and products were extracted by phase partitioning with 1 ml of ethyl acetate. The organic phase (upper layer) obtained by centrifugation at ˜14,000×g for 1 min was transferred to a fresh tube, dried under vacuum, and subsequently analyzed by GC-EI-MS as a trimethysilyl (TMS) derivative. Product formation was quantified using selective ion monitoring at m/z 268, a fragment ion common to all alkylresorcinols, generated by benzylic cleavage of the alkyl side chain. The identification of the m/z 268 [(5-methyl-1,3 phenylene)bis(oxy)bis(TMS)]^+ base ion and the parent [M]^+ provide confirmation of the 5-alkylresorcinolic structure as well as the length and degree of saturation of the associated side chain (Occolowitz, 1964. Anal. Chem. 36:2177-2181; Suzuki et al. 1996, supra; Suzuki at al. 2003, supra).
as §4
(§6) To explore this possibility, the predicted open reading frames encoded by O. sativa (cv. Nipponbare) LOC_Os05g12180, LOC_Os10g08620, and LOC_Os10g07040, were also expressed in E. coli as N-terminal polyhistidine fusions, and tested for alkylresorcinol synthase activity with the same panel of fatty acyl-CoA substrates used for recombinant ARS1 and ARS2 enzymatic studies (FIG. 4).

[6] = system: recombinant Os10g07040; assay: as above; type: biochemical, Oryza sativa
Protocol: as §5, §4, §6

[7] = system: recombinant Os10g08620; assay: as above; type: biochemical, Oryza sativa
Protocol: as §5, §4, §6

[8] = 25 μM starter unit, 40 μM malonyl-CoA, pH 7.0, 30° C., 15 min

T1 sequence (C5YRS1 entry or part of it): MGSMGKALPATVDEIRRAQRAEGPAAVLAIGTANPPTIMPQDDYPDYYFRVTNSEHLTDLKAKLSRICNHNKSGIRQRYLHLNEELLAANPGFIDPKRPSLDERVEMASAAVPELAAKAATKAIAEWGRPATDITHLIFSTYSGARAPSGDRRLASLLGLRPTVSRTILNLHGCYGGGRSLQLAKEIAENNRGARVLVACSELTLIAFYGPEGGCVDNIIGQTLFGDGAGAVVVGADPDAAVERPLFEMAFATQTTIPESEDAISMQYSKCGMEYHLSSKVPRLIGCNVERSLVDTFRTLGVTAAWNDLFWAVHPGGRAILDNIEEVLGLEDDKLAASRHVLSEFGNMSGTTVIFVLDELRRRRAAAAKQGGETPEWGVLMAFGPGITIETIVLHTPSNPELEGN
T2 sequence (C5Y4Z2 entry or part of it): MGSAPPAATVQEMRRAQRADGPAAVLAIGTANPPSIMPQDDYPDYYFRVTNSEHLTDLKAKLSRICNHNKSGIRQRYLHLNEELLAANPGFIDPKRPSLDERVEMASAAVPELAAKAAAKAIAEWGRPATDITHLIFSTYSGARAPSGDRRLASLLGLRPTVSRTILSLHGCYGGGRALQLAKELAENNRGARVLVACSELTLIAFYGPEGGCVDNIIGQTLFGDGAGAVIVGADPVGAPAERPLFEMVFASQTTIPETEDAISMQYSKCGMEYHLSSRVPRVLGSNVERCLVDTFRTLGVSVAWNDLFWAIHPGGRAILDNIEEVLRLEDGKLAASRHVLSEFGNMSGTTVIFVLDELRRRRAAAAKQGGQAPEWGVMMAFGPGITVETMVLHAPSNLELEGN

CCCCCC/C=C\CCCCCCCC(=O)SCCNC(=O)CCNC(=O)[C@H](O)C(C)(C)COP(=O)(O)OP(=O)(O)OC[C@H]1O[C@@H](n2cnc3c(N)ncnc32)[C@H](O)[C@@H]1OP(=O)(O)O [C16:1-CoA, palmitoleoyl-CoA]
maximal 5-alkylresorcinol-forming activity [1, 8]: 60.1 pkat mg^1 | Km [2]: 2.3 µM | kcat [2]: 0.0183 s⁻¹ | Km [3]: 3.6 µM | kcat [3]: 0.0233 s⁻¹

CCCCCC(=O)SCCNC(=O)CCNC(=O)[C@H](O)C(C)(C)COP(=O)(O)OP(=O)(O)OC[C@H]1O[C@@H](n2cnc3c(N)ncnc32)[C@H](O)[C@@H]1OP(=O)(O)O [hexanoyl-CoA]
triketide pyrone derailment product, share of the total moles product derived from the starter [4]: approximately 9% | triketide pyrone derailment product, share of the total moles product derived from the starter [1]: approximately 9% | activity as starter unit (in words) [5]: No activity | activity as starter unit (in words) [6]: No activity | activity as starter unit (in words) [7]: No activity

CCCCC/C=C\C/C=C\C/C=C\C/C=C\CCCC(=O)SCCNC(=O)CCNC(=O)[C@H](O)C(C)(C)COP(=O)(O)OP(=O)(O)OC[C@H]1O[C@@H](n2cnc3c(N)ncnc32)[C@H](O)[C@@H]1OP(=O)(O)O [arachidonoyl-CoA]
activity as starter unit (in words) [5]: No activity | activity as starter unit (in words) [6]: No activity | activity as starter unit (in words) [7]: No activity

CC(C)C(=O)SCCNC(=O)CCNC(=O)[C@H](O)C(C)(C)COP(=O)(O)OP(=O)(O)OC[C@H]1O[C@@H](n2cnc3c(N)ncnc32)[C@H](O)[C@@H]1OP(=O)(O)O [isobutyryl-CoA]
activity as starter unit (in words) [4]: No activity | activity as starter unit (in words) [1]: No activity

CC(C)CC(=O)SCCNC(=O)CCNC(=O)[C@H](O)C(C)(C)COP(=O)(O)OP(=O)(O)OC[C@H]1O[C@@H](n2cnc3c(N)ncnc32)[C@H](O)[C@@H]1OP(=O)(O)O [isovaleryl-CoA]
activity as starter unit (in words) [4]: No activity | activity as starter unit (in words) [1]: No activity

C=CC/C=C\C/C=C\CCCCCCCCSCCNC(=O)CCNC(=O)[C@H](O)C(C)(C)COP(=O)(O)OP(=O)(O)OC[C@H]1O[C@@H](n2cnc3c(N)ncnc32)[C@H](O)[C@@H]1OP(=O)(O)O [hexadecatrienyl-CoA, (9Z,12Z)-Hexadeca-9,12,15-trienyl-CoA]
activity as starter unit (in words) [4]: utilized | activity as starter unit (in words) [1]: utilized

CCCCCCCCCCCCCCCC(=O)SCCNC(=O)CCNC(=O)[C@H](O)C(C)(C)COP(=O)(O)OP(=O)(O)OC[C@H]1O[C@@H](n2cnc3c(N)ncnc32)[C@H](O)[C@@H]1OP(=O)(O)O [C16:0-CoA, palmitoyl-CoA]
Km [2]: 2.3 µM | kcat [2]: 0.0132 s⁻¹ | Km [3]: 4.1 µM | kcat [3]: 0.0183 s⁻¹

CCCCCCCC(=O)SCCNC(=O)CCNC(=O)[C@H](O)C(C)(C)COP(=O)(O)OP(=O)(O)OC[C@H]1O[C@@H](n2cnc3c(N)ncnc32)[C@H](O)[C@@H]1OP(=O)(O)O [capryloyl-CoA]
triketide pyrone derailment product, share of the total moles product derived from the starter [4]: ~33%

CC(C)(COP(=O)(O)OP(=O)(O)OC[C@H]1O[C@@H](n2cnc3c(N)ncnc32)[C@H](O)[C@@H]1OP(=O)(O)O)[C@@H](O)C(=O)NCCC(=O)NCCSC(=O)c1ccccc1 [benzoyl-CoA]
activity as starter unit (in words) [4]: No activity | activity as starter unit (in words) [1]: No activity

CCCCCCCCCCCCCC(=O)SCCNC(=O)CCNC(=O)[C@H](O)C(C)(C)COP(=O)(O)OP(=O)(O)OC[C@H]1O[C@@H](n2cnc3c(N)ncnc32)[C@H](O)[C@@H]1OP(=O)(O)O [myristoyl-CoA]
triketide pyrone derailment product, share of the total moles product derived from the starter [4]: ~15% | maximal 5-alkylresorcinol-forming activity [4, 8]: 81.0 pkat mg^−1 | triketide pyrone derailment product, share of the total moles product derived from the starter [1]: < 5%

CC(C)(COP(=O)(O)OP(=O)(O)OC[C@H]1O[C@@H](n2cnc3c(N)ncnc32)[C@H](O)[C@@H]1OP(=O)(O)O)[C@@H](O)C(=O)NCCC(=O)NCCSC(=O)CC(=O)O [Malonyl-CoA, malonyl-CoA]
Km [2]: 5.2 µM | kcat [2]: 0.0148 s⁻¹ | Km [3]: 5.8 µM | kcat [3]: 0.0123 s⁻¹
